Data reported in ChEMBL document CHEMBL4673383, “Discovery of a Pyrimidothiazolodiazepinone as a Potent and Selective Focal Adhesion Kinase (FAK) Inhibitor” (ACS Med Chem Lett, 2021).
Each block holds one molecule with its values, some of them ahead of it. The source made the active and inactive calls. The calls are words filed in the database; no cut-off is given here.

What was measured:
[1] = system: HT-29; assay: Antiproliferative activity against human HT-29 cells cultured as 2D-adherent monolayer assessed as reduction in cell viability by Celltiter-Glo assay; assay type: functional, cell-based
[2] = system: HT-29; assay: Antiproliferative activity against human HT-29 cells cultured as 3D-spheroids assessed as reduction in cell viability by Celltiter-Glo assay; assay type: functional, cell-based
[3] = system: MDA-MB-231; assay: Antiproliferative activity against human MDA-MB-231 cells assessed as reduction in cell viability incubated for 120 hrs using ultra-low adherent 3D-spheroids by CellTiter-glo assay; assay type: functional, cell-based; settings: MDA-MB-231, 120 h
[4] = system: MDA-MB-231; assay: Antiproliferative activity against human MDA-MB-231 cells cultured as 2D-adherent monolayer assessed as reduction in cell viability by Celltiter-Glo assay; assay type: functional, cell-based
[5] = system: MDA-MB-231; assay: Antiproliferative activity against human MDA-MB-231 cells cultured as 3D-spheroids assessed as reduction in cell viability by Celltiter-Glo assay; assay type: functional, cell-based
[6] = Apparent permeability of the compound across apical to basolateral side in human Caco-2 cells; assay type: ADME, cell-based
[7] = Efflux ratio of apparent permeability in human Caco-2 cells; assay type: ADME, cell-based
[8] = molecular target: Focal adhesion kinase 1 (Homo sapiens, UniProt Q05397); assay: Inhibition of Focal adhesion kinase (unknown origin) using Tyr 07 peptide substrate incubated for 60 mins at room temperature followed by 60 mins development reaction measured fluorescence by Z-LYTE assay
[9] = molecular target: Glycogen synthase kinase-3 beta (Homo sapiens, UniProt P49841); assay: Inhibition of human GSK3beta
[10] = molecular target: CDK7/Cyclin H/MNAT1 (Homo sapiens, UniProt P50613); assay: Inhibition of human CDK7/cyclinH/MAT1; assay type: protein-complex assay
[11] = molecular target: Protein-tyrosine kinase 2-beta (Homo sapiens, UniProt Q14289); assay: Inhibition of Pyk2 (unknown origin)
[12] = molecular target: Cyclin-dependent kinase 1/cyclin B1 (Homo sapiens, UniProt P06493); assay: Inhibition of human CDK1/cyclinB; assay type: protein-complex assay
[13] = system: MDA-MB-231; assay: Inhibition of cell migration in human MDA-MB-231 cells incubated for 24 hrs by microscopy method; assay type: functional, cell-based
[14] = molecular target: Focal adhesion kinase 1 (Mus musculus) (UniProt P34152); assay: Inhibition of FAK in CDH1-/- RHOAY42C/+ mouse gastric cancer organoid model assessed as […] phosphorylation at 0.1 to 20 uM incubated for 24 hrs by immunoblot analysis; assay type: tissue-based; settings: Stomach, dose 0.1-20 µM
[15] = Clearance in C57BI/6 male mouse at 2 mg/kg, iv; assay type: ADME, organism-based; settings: C57BL/6, mouse, in vivo
[16] = Half life in C57BI/6 male mouse at 2 mg/kg, iv; assay type: ADME, organism-based; settings: C57BL/6, mouse, in vivo
[17] = species on record: Homo sapiens; assay: Antiproliferative activity against human gastric organoid assessed as reduction in cell viability by Celltiter-Glo assay; assay type: functional, tissue-based; settings: Stomach
[18] = Cmax in C57BI/6 male mouse at 10 mg/kg, po; assay type: ADME, organism-based; parameters: route oral, dose 10 mg/kg; settings: C57BL/6, mouse, in vivo
[19] = Oral bioavailability in C57BI/6 male mouse at 10 mg/kg; assay type: ADME, organism-based; settings: C57BL/6, mouse, in vivo
[20] = AUC(infinity) in C57BI/6 male mouse at 10 mg/kg, po; assay type: ADME, organism-based; parameters: route oral, time infinity, dose 10 mg/kg; settings: C57BL/6, mouse, in vivo
[21] = molecular target: Focal adhesion kinase 1 (Mus musculus) (UniProt P34152); assay: Inhibition of FAK in mouse gastric organoid by Immunoblotting
[22] = Tmax in C57BI/6 male mouse at 10 mg/kg, po; assay type: ADME, organism-based; settings: C57BL/6, mouse, in vivo
[23] = molecular target: Serine/threonine-protein kinase PLK1 (Homo sapiens) (UniProt P53350); assay: Inhibition of PLK1 (unknown origin) assessed as cell cycle disruption
[24] = Volume of distribution at steady-state in C57BI/6 male mouse at 2 mg/kg, iv; assay type: ADME, organism-based; settings: C57BL/6, mouse, in vivo, read-out: Vdss
[25] = molecular target: Focal adhesion kinase 1 (Mus musculus) (UniProt P34152); assay: Inhibition of FAK in CDH1-/- RHOAY42C/+ mouse gastric cancer organoid model assessed as nonphosphorylated YAP at 0.1 to 20 uM incubated for 24 hrs by immunoblot analysis; assay type: tissue-based; settings: Stomach, dose 0.1-20 µM
[26] = molecular target: Focal adhesion kinase 1 (Mus musculus) (UniProt P34152); assay: Inhibition of FAK in CDH1-/- RHOAY42C/+ mouse gastric cancer organoid model assessed as pFAY Y397 phosphorylation at 5 uM incubated for 24 hrs by immunoblot analysis; assay type: tissue-based; settings: Stomach
[27] = species on record: Mus musculus; assay: Antiproliferative activity against CDH1-/-RHOAY42C/+ mouse diffuse gastric cancer organoid model assessed as reduction in cell viability at 5 uM; assay type: functional, tissue-based; settings: Stomach
[28] = molecular target: Focal adhesion kinase 1 (Mus musculus) (UniProt P34152); assay: Inhibition of FAK in CDH1-/- RHOAY42C/+ mouse gastric cancer organoid model assessed as […] phosphorylation at 5 uM incubated for 24 hrs by immunoblot analysis; assay type: tissue-based; settings: Stomach
[29] = molecular target: Focal adhesion kinase 1 (Mus musculus) (UniProt P34152); assay: Inhibition of FAK in CDH1-/- RHOAY42C/+ mouse gastric cancer organoid model assessed as total YAP/TAZ level at 5 uM incubated for 24 hrs by immunoblot analysis; assay type: tissue-based; settings: Stomach

Focal adhesion kinase 1 (Mus musculus), sequence (P34152 whole entry): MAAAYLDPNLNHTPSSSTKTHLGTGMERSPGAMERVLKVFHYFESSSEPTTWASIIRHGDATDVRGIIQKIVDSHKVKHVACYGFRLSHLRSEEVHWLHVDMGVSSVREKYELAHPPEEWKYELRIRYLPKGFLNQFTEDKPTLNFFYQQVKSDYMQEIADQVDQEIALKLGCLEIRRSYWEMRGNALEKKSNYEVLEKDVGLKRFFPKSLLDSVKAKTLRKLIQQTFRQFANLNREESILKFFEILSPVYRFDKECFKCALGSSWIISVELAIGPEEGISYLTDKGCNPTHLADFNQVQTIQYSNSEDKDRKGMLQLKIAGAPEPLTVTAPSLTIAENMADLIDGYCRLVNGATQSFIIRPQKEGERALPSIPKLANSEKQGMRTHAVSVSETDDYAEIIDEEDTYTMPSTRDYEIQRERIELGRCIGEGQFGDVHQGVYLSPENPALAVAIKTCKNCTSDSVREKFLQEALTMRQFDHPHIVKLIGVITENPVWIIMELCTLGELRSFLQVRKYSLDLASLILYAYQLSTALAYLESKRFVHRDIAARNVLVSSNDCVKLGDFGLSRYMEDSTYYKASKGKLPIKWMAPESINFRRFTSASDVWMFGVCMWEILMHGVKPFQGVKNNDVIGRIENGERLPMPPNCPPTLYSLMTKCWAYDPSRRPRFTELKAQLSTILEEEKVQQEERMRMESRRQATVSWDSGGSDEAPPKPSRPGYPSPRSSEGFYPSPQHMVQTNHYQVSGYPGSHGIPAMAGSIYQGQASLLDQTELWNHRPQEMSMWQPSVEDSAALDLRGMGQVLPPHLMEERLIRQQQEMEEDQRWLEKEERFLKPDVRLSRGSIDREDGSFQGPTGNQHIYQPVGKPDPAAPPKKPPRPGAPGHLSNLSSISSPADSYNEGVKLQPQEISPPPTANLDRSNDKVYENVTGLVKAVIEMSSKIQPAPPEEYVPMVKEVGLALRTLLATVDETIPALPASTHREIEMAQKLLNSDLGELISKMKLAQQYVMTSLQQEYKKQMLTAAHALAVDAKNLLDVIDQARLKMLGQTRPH
Focal adhesion kinase 1, sequence (Q05397 whole entry): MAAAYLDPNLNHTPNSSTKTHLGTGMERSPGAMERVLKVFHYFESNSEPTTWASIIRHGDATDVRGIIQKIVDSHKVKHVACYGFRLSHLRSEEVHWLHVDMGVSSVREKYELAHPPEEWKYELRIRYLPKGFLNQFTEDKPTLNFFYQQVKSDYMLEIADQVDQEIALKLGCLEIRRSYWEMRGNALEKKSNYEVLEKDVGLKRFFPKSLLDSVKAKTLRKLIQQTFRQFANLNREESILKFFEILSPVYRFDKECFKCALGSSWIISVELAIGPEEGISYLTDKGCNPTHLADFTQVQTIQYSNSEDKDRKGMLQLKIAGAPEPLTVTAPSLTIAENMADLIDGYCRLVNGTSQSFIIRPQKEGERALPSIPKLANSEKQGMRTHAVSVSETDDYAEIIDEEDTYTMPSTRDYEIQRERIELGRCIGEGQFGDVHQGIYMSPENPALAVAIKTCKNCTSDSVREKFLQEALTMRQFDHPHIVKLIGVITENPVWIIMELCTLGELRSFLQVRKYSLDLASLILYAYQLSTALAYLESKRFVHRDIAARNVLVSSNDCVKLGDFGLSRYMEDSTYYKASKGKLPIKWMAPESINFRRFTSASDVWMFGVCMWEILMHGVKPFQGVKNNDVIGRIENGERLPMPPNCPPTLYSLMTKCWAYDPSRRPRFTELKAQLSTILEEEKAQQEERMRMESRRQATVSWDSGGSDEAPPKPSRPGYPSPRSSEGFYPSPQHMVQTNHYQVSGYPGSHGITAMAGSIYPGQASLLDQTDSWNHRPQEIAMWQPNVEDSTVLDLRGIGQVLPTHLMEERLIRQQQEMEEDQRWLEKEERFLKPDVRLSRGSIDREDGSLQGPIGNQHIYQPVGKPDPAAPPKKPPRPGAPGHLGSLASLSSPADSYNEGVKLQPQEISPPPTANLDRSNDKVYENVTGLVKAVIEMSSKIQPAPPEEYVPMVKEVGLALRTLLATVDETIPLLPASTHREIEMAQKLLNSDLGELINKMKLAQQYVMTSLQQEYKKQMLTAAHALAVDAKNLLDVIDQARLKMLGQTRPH
Glycogen synthase kinase-3 beta, sequence (P49841 whole entry): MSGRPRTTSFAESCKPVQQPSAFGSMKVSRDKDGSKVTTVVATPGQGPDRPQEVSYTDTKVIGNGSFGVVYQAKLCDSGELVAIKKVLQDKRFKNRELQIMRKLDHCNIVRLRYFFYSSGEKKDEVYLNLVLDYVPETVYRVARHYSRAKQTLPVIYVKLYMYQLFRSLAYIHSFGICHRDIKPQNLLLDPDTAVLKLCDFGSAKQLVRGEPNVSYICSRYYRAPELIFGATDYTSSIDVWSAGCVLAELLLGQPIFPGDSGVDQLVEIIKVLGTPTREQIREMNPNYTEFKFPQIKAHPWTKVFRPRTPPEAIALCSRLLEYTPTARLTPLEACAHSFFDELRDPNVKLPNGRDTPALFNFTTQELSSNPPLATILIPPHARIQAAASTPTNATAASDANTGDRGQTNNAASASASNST
Serine/threonine-protein kinase PLK1 (Homo sapiens), sequence (P53350 whole entry): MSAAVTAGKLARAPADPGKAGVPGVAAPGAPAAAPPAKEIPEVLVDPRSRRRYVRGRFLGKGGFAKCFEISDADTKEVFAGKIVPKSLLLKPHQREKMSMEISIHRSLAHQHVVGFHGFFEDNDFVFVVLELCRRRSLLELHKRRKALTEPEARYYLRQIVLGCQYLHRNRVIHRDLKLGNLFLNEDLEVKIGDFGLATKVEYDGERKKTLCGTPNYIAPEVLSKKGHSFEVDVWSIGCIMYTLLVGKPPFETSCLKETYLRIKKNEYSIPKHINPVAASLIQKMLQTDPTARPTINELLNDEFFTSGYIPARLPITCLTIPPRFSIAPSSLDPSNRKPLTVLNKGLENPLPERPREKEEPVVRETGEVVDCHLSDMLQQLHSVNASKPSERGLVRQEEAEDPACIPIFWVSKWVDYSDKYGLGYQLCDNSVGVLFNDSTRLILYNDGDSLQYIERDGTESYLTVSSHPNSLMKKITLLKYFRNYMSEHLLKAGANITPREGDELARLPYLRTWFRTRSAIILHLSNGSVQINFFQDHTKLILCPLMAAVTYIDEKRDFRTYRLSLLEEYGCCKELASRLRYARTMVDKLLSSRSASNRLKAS
Cyclin-dependent kinase 1/cyclin B1, sequence (P06493 whole entry): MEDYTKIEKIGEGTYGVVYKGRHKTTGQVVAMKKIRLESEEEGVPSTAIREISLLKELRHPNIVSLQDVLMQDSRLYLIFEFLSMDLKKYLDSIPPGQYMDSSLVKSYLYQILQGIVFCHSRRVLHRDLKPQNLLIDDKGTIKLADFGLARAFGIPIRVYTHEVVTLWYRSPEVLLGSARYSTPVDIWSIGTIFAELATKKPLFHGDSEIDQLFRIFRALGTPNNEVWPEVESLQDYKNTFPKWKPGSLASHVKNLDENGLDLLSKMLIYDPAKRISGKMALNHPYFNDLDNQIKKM
Cyclin-dependent kinase 1/cyclin B1, sequence (P14635 whole entry, further chain): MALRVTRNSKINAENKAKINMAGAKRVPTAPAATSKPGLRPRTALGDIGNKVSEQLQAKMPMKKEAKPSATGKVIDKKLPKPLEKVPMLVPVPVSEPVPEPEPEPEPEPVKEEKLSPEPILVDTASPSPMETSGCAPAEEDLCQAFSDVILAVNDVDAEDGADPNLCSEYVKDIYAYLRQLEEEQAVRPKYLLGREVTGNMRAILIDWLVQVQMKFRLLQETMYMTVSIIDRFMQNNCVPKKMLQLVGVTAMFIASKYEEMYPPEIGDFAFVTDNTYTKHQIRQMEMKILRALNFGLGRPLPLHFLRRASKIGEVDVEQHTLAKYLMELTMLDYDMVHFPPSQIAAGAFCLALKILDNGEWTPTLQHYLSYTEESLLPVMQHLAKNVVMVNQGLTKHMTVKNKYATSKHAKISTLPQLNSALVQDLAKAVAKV
CDK7/Cyclin H/MNAT1, sequence (P51946 whole entry): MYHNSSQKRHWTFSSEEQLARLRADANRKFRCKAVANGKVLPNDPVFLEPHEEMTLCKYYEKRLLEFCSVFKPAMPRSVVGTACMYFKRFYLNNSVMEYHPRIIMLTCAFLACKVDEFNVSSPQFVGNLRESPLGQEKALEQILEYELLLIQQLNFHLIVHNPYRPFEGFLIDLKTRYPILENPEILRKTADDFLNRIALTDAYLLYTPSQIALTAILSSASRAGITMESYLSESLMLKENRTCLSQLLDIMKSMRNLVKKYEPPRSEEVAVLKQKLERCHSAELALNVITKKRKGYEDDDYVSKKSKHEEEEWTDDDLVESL
CDK7/Cyclin H/MNAT1, sequence (P50613 whole entry): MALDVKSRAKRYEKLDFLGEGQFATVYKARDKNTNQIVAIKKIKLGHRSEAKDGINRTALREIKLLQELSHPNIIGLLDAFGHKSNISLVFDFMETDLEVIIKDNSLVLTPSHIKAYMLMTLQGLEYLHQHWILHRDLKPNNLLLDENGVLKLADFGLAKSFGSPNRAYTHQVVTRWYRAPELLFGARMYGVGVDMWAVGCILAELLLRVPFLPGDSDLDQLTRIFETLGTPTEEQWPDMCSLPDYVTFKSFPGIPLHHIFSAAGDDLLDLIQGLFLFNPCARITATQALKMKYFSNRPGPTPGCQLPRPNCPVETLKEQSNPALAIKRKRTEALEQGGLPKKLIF
CDK7/Cyclin H/MNAT1, sequence (P51948 whole entry, further chain): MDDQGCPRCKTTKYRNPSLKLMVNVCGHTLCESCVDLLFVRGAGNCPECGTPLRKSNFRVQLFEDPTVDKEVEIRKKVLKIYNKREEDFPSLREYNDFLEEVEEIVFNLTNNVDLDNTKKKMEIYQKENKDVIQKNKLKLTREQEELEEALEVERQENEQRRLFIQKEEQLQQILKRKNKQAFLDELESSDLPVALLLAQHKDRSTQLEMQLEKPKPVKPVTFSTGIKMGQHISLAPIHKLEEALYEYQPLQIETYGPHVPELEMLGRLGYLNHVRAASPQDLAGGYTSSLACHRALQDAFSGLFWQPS

Compound: CNC(=O)c1ccccc1Nc1cc(Nc2ccc(N3CCOCC3)cc2OC)ncc1C(F)(F)F
Activity [1]: Active
Activity [2]: Active

IC50 [3]: 3.7 µM
Compound: COc1cc(C2CCN(C)CC2)ccc1Nc1ncc2c(n1)N(C)c1sc(C)nc1C(=O)N2C
Activity [4]: inactive
Activity [5]: Active

IC50 [3]: 5.9 µM
Compound: CNC(=O)c1ccc(Nc2ncc3c(n2)N(C)c2sc(C)nc2C(=O)N3C)cc1

IC50 [3]: 6.1 µM
Compound: CCOc1cc(N2CCN(C)CC2)ccc1Nc1ncc2c(n1)N(C)c1sc(C)nc1C(=O)N2C

IC50 [3]: 0.93 µM
Papp A→B [6]: 8.3 ×10⁻⁶ cm/s
efflux ratio [7]: 2.2
Compound: CCN1C(=O)c2nc(C)sc2N(C)c2nc(Nc3ccc(N4CCC(N5CCN(C)CC5)CC4)cc3OC)ncc21
Activity [4]: inactive
Activity [5]: Active

IC50 [8]: 0.0465 µM
Compound: Cc1nc2c(s1)N(C)c1nc(Nc3ccc(N4CCN(C)CC4)cc3OCCO)ncc1N(C)C2=O

IC50 [8]: 0.123 µM
Compound: COc1cc(N2CCN(C)CC2)ccc1Nc1ncc2c(n1)N(C)c1cn(C)nc1C(=O)N2

IC50 [9]: < 1 µM
IC50 [10]: < 1 µM
IC50 [11]: < 1 µM
IC50 [12]: < 1 µM
Compound: CS(=O)(=O)c1cccc(CNc2nc(Nc3ccc4c(c3)CCC(=O)N4)ncc2C(F)(F)F)c1
Activity [1]: Active

IC50 [3]: > 10 µM
Compound: COc1cc(C(=O)N2CCC(N3CCN(C)CC3)CC2)ccc1Nc1ncc2c(n1)N(C)c1sc(C)nc1C(=O)N2C

IC50 [8]: > 10 µM
Compound: COc1cc(N2CCN(C)CC2)ccc1Nc1ncc2c(n1)N(C)c1ncsc1C(=O)N2

inhibition [14]: Active
clearance [15]: 18.5 mL/min/kg
half-life [16]: 5.29 h
Cmax [18]: 420 nM
bioavailability [19]: 18.3%
AUC(0-inf) [20]: 1820 ng·h/mL
Papp A→B [6]: 5.8 ×10⁻⁶ cm/s
inhibition [21]: Active
Tmax [22]: 4 h
inhibition [23]: inactive
Vd [24]: 4.07 L/kg
Compound: COc1cc(N2CCC(N3CCN(C)CC3)CC2)ccc1Nc1ncc2c(n1)N(C)c1sc(C)nc1C(=O)N2C
inhibition [13]: Active
Activity [1]: inactive
Activity [2]: inactive
Activity [17]: Dose-dependent effect
Activity [4]: inactive
Activity [5]: Active

IC50 [3]: 2.3 µM
Compound: COc1cc(N2CCN(C)CC2)ccc1Nc1ncc2c(n1)N(C)c1sc(C)nc1C(=O)N2C
Activity [4]: inactive
Activity [5]: Active

IC50 [3]: > 10 µM
Compound: COc1cc(N2CCN(CCO)CC2)ccc1Nc1ncc2c(n1)N(C)c1sc(C)nc1C(=O)N2C

IC50 [8]: > 10 µM
Compound: COc1cc(N2CCN(C)CC2)ccc1Nc1ncc2c(n1)N(C)c1ccccc1C(=O)N2

IC50 [3]: > 10 µM
Compound: Cc1nc2c(s1)N(C)c1nc(Nc3ccc4c(c3)CCC(=O)N4)ncc1N(C)C2=O

IC50 [3]: 2.5 µM
Compound: COc1cc(N2CCNCC2)ccc1Nc1ncc2c(n1)N(C)c1sc(C)nc1C(=O)N2C
Activity [4]: inactive
Activity [5]: Active

IC50 [3]: > 10 µM
Compound: COc1cc(N2CCN(S(C)(=O)=O)CC2)ccc1Nc1ncc2c(n1)N(C)c1sc(C)nc1C(=O)N2C

IC50 [3]: > 10 µM
Compound: CNC(=O)c1ccc(Nc2ncc3c(n2)N(C)c2sc(C)nc2C(=O)N3C)c(OC)c1

inhibition [25]: Active
inhibition [26]: Active
inhibition [28]: Active
inhibition [29]: Active
Compound: CNC(=O)c1ccc(Nc2ncc(C(F)(F)F)c(NCc3nccnc3N(C)S(C)(=O)=O)n2)cc1
Activity [1]: Active
Activity [27]: Active

IC50 [8]: > 10 µM
Compound: COc1cc(N2CCC(N3CCN(C)CC3)CC2)ccc1Nc1ncc2c(n1)N(C)c1sc(-c3ccccc3)nc1C(=O)N2C

IC50 [3]: > 10 µM
Compound: CCN1c2nc(Nc3ccc(N4CCC(N5CCN(C)CC5)CC4)cc3OC)ncc2N(C)C(=O)c2nc(C)sc21

IC50 [3]: > 10 µM
IC50 [8]: 0.525 µM
Compound: COc1cc(N2CCC(N3CCN(C)CC3)CC2)ccc1Nc1ncc2c(n1)N(C)c1oc(C)nc1C(=O)N2C

IC50 [3]: 7.7 µM
Compound: COc1cc(N2CCN(C)CC2)c(C)cc1Nc1ncc2c(n1)N(C)c1sc(C)nc1C(=O)N2C

IC50 [3]: > 10 µM
Compound: COc1cc2c(cc1Nc1ncc3c(n1)N(C)c1sc(C)nc1C(=O)N3C)CN(C)CC2
